The text below walks through data of patent publication US20260327274A1, “PROTEIN HYDROLYSATES OF AZUKI BEANS AND COSMETIC USES THEREOF” (LUBRIZOL ADVANCED MATERIALS, INC., priority 2022, published 2026).

Ends that are not written are not given here.

Experiment [1] is described as follows: DPPH inhibition by synthesized peptides identified in the hydrolysate. In kind it is biochemical. The following applies: for DPPH inhibition (%): synthesized peptide, test concentration not given; for Ability to inhibit DPPH / antioxidant potential (in words): synthesized peptides, F′2 subfraction. Here is the method: (§1) Twelve different batches of purified hydrolysate obtained as described from Examples 1 to 3 are analyzed to determine the dry weight, protein content and antioxidant activity. • Dry weight is determined by weight difference after drying at 110° C. • Protein content is determined by using a BCA Assay kit. • Antioxidant activity is determined by DPPH (2,2-Diphenyl-1-Picrylhydrazyl) assay. • Briefly, 50 μL of 100 µM DPPH in EtOH is mixed with 50 μL of purified hydrolysate and incubated in the dark at 37° C. for 20 min and absorbance measured at 517 nm.
The purified extract according to Example 3 is further fractionated by using semi-preparative high-performance liquid chromatography (HPLC) and antioxidant activity assayed by DPPH for identifying the active fraction or peptides.
Collected tubes are analyzed by analytical HPLC at 3.0 mg/ml using a Cortecs C18+column (4.6×50 mm; 2.7 μm; Waters®) at a flow of 1.6 ml/min using the following gradient composition: isocratic of 0% B in 2 min, 0 to 30% of B in 5 min, and 30 to 75% of B in 5 min, monitoring absorbance of eluting peaks at 220 nm. Different fractions are obtained from the purified hydrolysate and lyophilized for further analysis and separation. Fractions are reconstituted in water and their antioxidant activity is determined by measuring the percentage of DPPH inhibition using the methodology described above.
To identify peptide sequences, the Proteome Discoverer 1.4.0.288 program (Thermo) with MASCOT 2.5 is used. The identified peptides are individually synthesized by applying standard solid phase peptide synthesis, using Fmoc/tBu chemistry protocols. As starting resin, CTC-PS or HO-Trt-Chem Matrix® resin is used. In the latter case, initial resin chlorination took place by overnight reaction with […] in dry THF. The first amino acid is introduced as a solution in DMF in presence of DIEA as base, followed by capping of the resin with MeOH. The resin is washed with DMF, prior to removal of Fmoc group by treatment with a 20% solution of piperidine in DMF, followed by washings in the same solvent. Subsequent residues are incorporated in DMF employing DIPCDI and Oxyma as coupling reagents. After verification of reaction completion using ninhydrin test, the solvent is filtrated away by suction. After this, the resin is washed with DMF and the Fmoc-deprotection step is repeated as abovementioned or in 2% DBU in DMF. Coupling-deprotection cycles are repeated for introduction of the remaining amino acids, with increasing Fmoc removal treatment times from the 6th residue. Oxyma (0.5M) is introduced in the cocktail whenever Asp residue is already incorporated into the growing peptide chain.
The peptidyl resin is washed and dried using DMF, DCM and diethyl ether and finally left under vacuum overnight to get rid of solvent traces. Cleavage of the crude product from the solid support and removal of the side-chain protecting groups is achieved by acidolysis using TFA and 5% water as scavenger. The peptide is precipitated out of the acidic mixture with Et2O, followed by washes with the same solvent and drying under reduced pressure. Crude trifluoroacetate salt peptide is lyophilized and analyzed by analytical HPLC-MS, affording peptide purities over 80%.
Synthesized peptides are further evaluated for its capacity to inhibit DPPH as a reference for their antioxidant potential. […] ID.
(In general: DPPH is a stable violet radical that fades when it is reduced.)

Experiment [2] in a line: DPPH assay of antioxidant activity in combination with preservatives, initial and after 3 months storage. The format is biochemical. Conditions: 0.5% (w/w) Sodium Benzoate alone. Here is the method: as §1
The inhibition percentage is calculated from the following formula: […]
Suitable preservative [1% (w/w) Dermosoft™ 700B (INCI: Levulinic Acid (and) Sodium Levulinate (and) Glycerin (and) Aqua), 4% (w/w) Leucidal™ SF Max from Active Micro Technologies (AMT) (INCI: Lactobacillus Ferment) or 4% (w/w) Leucidal™ Liquid (INCI: Leuconostoc/Radish Root Ferment Filtrate)] is added onto deionized water under continuous stirring. Purified hydrolysate according to Example 3 is added on top of this solution to obtain a concentration of 44-88% (v/v), depending on sample dry weight. […] Samples are maintained for 3 months at 40° C. or at room temperature and antioxidant activity determined by DPPH assay.

The subject of a further experiment is Caucasian hair shafts. In words: Ex vivo protection evaluation in Caucasian hair shafts (protein carbonylation). More on the design: species or system human. Conditions: positive control NAC, concentration not given; stress (PM + UV-A); basal control 100, stress 214. The text has this: Carbonylated proteins in hair shafts or HFDPC are labeled in situ using a fluorescent probe functionalized to specifically bind carbonyl groups in proteins [Baraibar, M A, et al., “Proteomic quantification and identification of carbonylated proteins upon oxidative stress and during cellular aging” J. Proteomics (2013) 30; 92:63-70]. Specific fluorescent signals (relative fluorescent units) per experimental group (n=6) are collected and analyzed with ImageJ™ software. A relative value (%) of Carbonylation Level per experimental group is obtained with respect to basal control.
hair shafts (donor; light brown) are treated with hydrolysate of Example 3 at 1% (v/v) (active ingredient solubilized in ultra-pure water, leave on (no washing steps)) for 30 minutes with gently movement at room temperature. After this time, hair shafts are dried at room temperature and are stressed with Particle Matters at 150 μg/cm^2 (from European Reference Material; Ref. CZ100) followed by UV-A irradiation (LED source, emission peak at 365 nm, 84 J/cm^2) for 6 h.
After stress exposure Proteins Carbonylation is determined as described in Example 5.

For EYTGDAAGR [SEQ ID No. 5], in experiment [1], the “DPPH inhibition (%)” value is reported as 83.9% and the “Ability to inhibit DPPH / antioxidant potential (in words)” value is listed as “most antioxidant peptides”.
For LPQQEQGHDR [SEQ ID No. 2], in that order: 77.5% and “most antioxidant peptides”.
On to `O=C(O)c1ccccc1` [Sodium Benzoate], for which the “% DPPH INHIBITION, t = 0” value in experiment [2] came to 0%.
Regarding VAEQEQEQAKRQ [SEQ ID No. 1], in experiment [1], the “DPPH inhibition (%)” value was found to be 78.7% and the “Ability to inhibit DPPH / antioxidant potential (in words)” value is given as “most antioxidant peptides”.
Turning to GINAENNQRN [SEQ ID No. 4], in experiment [1], the “DPPH inhibition (%)” value was 96.3% and the “Ability to inhibit DPPH / antioxidant potential (in words)” value is reported as “most antioxidant peptides”.
As for `CC(=O)N[C@@H](CS)C(=O)O` [NAC, N-acetyl-cysteine], the “Carbonylation level % (MEAN ± SEM)” value in the experiment on Caucasian hair shafts is given as 166.8 ± 5.41 %.
VDAQPEEQQR [SEQ ID No. 3]: in experiment [1], the “DPPH inhibition (%)” value amounted to 100% and the “Ability to inhibit DPPH / antioxidant potential (in words)” value was “most antioxidant peptides”.
